Our source for the IC50, DC50 and TGI values is ChEMBL document CHEMBL5331112, “Recent Advances in Pro-PROTAC Development to Address On-Target Off-Tumor Toxicity” (J Med Chem, 2023).

A short description of series [1]: Cytotoxicity against human HFF-1 cells assessed as cell growth inhibition. The class given is toxicity, cell-based.
In series [2] the target is von Hippel-Lindau disease tumor suppressor/Bromodomain-containing protein 4 (Homo sapiens, UniProt O60885+P40337). Description: PROTAC activity at VHL/BRD4 in human MCF7 cells assessed as degradation of BRD4 incubated by Western blot assay. In kind it is cell-based. In general terms: Immunoblotting shows a protein as a band on a membrane.
Series [3] concerns MCF7. Description: Anticancer activity against human MCF7 cells assessed as cell growth inhibition CCK8 assay. In kind it is functional, cell-based. Background: Tetrazolium assays rely on reduction of a dye to a coloured formazan, in cell work by metabolically active cells.
For series [4], the system named is MCF7. The series can be described thus: Anticancer activity against human MCF7 cells xenografted in mouse assessed as cell growth inhibition […] relative to control. The class given is functional. In general terms: A xenograft is tissue or cells of one species grown in another, often human tumour cells in immunodeficient mice.
For the next series, the system named is SU-DHL-1. Description: Anticancer activity against human SU-DHL-1 cells assessed as cell growth inhibition. In kind it is functional, cell-based.

von Hippel-Lindau disease tumor suppressor/Bromodomain-containing protein 4, sequence (P40337 whole entry, looked up, other chains not shown): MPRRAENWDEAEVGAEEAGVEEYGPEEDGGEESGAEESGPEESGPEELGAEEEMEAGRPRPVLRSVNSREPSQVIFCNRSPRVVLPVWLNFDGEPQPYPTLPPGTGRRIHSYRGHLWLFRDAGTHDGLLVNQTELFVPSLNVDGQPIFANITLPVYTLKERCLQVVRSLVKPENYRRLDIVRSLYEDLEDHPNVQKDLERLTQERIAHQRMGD

In the case of `Cc1ncsc1-c1ccc([C@H](C)NC(=O)[C@@H]2C[C@@H](OC(=O)CCCCn3cc(CNC(=O)CC[C@H](NC(=O)c4ccc(NCc5cnc6nc(N)[nH]c(=O)c6n5)cc4)C(=O)O)nn3)CN2C(=O)[C@@H](NC(=O)COCCCOCCNC(=O)C[C@@H]2N=C(c3ccc(Cl)cc3)c3c(sc(C)c3C)-n3c(C)nnc32)C(C)(C)C)cc1`, in series [1], the concentration for half-maximal inhibition (IC50) (commonly the concentration that gives 50% inhibition) was more than 10 µM.

In the case of `CNC(=O)CCC(=O)OCCSSCCOC(=O)O[C@@H]1C[C@@H](C(=O)N[C@@H](C)c2ccc(-c3scnc3C)cc2)N(C(=O)[C@H](NC(=O)COCCOCCOCCNC(=O)C[C@@H]2N=C(c3ccc(Cl)cc3)c3c(sc(C)c3C)-n3c(C)nnc32)C(C)(C)C)C1`, the DC50 – broadly, the midpoint of the concentration-degradation curve – in series [2] amounted to 22 nM. Further, the 50% inhibitory concentration (IC50) with MCF7 [3] is 56.9 nM. Also, in the series on MCF7 [4], the TGI (in general, the reduction of tumour growth relative to the control group) is 77.5%. As for `Cc1cc(Nc2ncc(Cl)c(Nc3ccccc3S(=O)(=O)C(C)C)n2)c(OC(C)C)cc1C1CCN(C(=O)CCCC(=O)N[C@H](C(=O)N2C[C@H](OC(=O)CCCCn3cc(CNC(=O)CC[C@H](NC(=O)c4ccc(NCc5cnc6nc(N)[nH]c(=O)c6n5)cc4)C(=O)O)nn3)C[C@H]2C(=O)N[C@@H](C)c2ccc(-c3scnc3C)cc2)C(C)(C)C)CC1`, the IC50 in the series with SU-DHL-1 was determined as 200 nM.
